The text below walks through data of US7507727B2, “Substituted quinobenzoxazine analogs and methods of using thereof” (Cylene Pharmaceuticals, Inc., priority 2003, dated 2009).

Series [1] relates to Ramos xenograft. In words: Ramos Burkitt's lymphoma xenograft model. Format: in vivo. The following applies: FIG. 5. As for the experimental part: (§1) Two xenograft models for inoculation were harvested and diluted to a concentration of 50×10^6 cells/ml or 100×10^6 cells/ml. Four to six week old nude mice were injected with 0.1 ml of the cell suspension containing between 5×10^6 and 10×10^6 cells. When tumors are of a suitable size compound dosing is commenced. Tumor sizes are measured throughout the treatment period with calipers and body weights also measured.

Series [2] deals with c-Myc template DNA (c-myc quadruplex). The experiment in a line: Quadruplex binding / stop assay (Taq polymerase arrest, capillary electrophoresis).
The test system of series [3] is HCT-116. The experiment in a line: Cell proliferation/cytotoxicity in HCT-116 (Table 1D). The series is classed as cell-based. The following applies: Homo sapiens; HCT-116 cells; unit inferred.
In series [4] the test system is HCT-116 cells. The experiment in a line: Annexin V-Alexa 488 staining. The series is classed as cell-based. The note with it: 0.5 uM, control. How it is done: The following protocol was followed for this example. […] Incubate o/n or up to 24 hrs at 37° C. in CO2 incubator. […] Keep one or two untreated plates (medium only) as control plates. […] Harvest cells (collect attached as well as floating cells). Wash cells twice with cold PBS. Re-suspend cells in 1× Annexin binding buffer.
Count cells and dilute in 1× Annexin binding buffer to ˜1×10^6 cells/0.1 ml, preparing a sufficient volume to have 100 μl per assay. Add 5 μl of the Annexin V conjugate to each 100 μl of cell suspension. Add 4 μl of propidium iodide solution (stock=1 mg/ml) to each 100 μl of cell suspension. Incubate sample at RT for 15 minutes. Add 400 μl Annexin binding buffer, mix gently and keep samples on ice. Analyze stained cells immediately by flow cytometry.

Series [5] concerns Salmonella typhimurium (TA97a, TA98, TA100, TA102, TA1535). The following applies: positive control. How it is done: This Mutagenicity Assessment (Ames Assay) evaluated the potential of the test article extracts to induce histidine (his) reversion in S. typhimurium (his− to his+) or tryptophan (trp) reversion in E. coli (trp− to trp+) caused by base changes or frameshift mutations in the genome of tester organisms.
This plate incorporation assay was conducted with five strains of Salmonella typhimurium (TA97a, TA98, TA100, TA102, and TA1535) and one strain of Escherichia coli (WP2-uvrA^−) in the presence and absence of an exogenous mammalian activation system (S9). The test article was dissolved in 5% dextrose. A series of dilutions were then prepared in saline just prior to testing. A Range Finding Study was conducted for this assay to determine the appropriate doses for definitive mutagenicity assessment.
A stock solution of test article was prepared at 20.0 mg/mL as follows: 1.0 g test article was added to 15.0 mL of 0.1 HCl for 1 minute. The test article was stirred for 15 minutes at room temperature. Next 33.0 mL of deionized water was added and allowed to stir for 30 minutes. […] Lower doses were prepared by dilution in 5% dextrose from this stock immediately prior to use. To minimize any change of degradation, the test article solutions were kept on ice after preparation and until just prior to dosing procedures. The test article was administered in vitro, through a solvent compatible with the test system.
This assay has historically been used to detect mutation in a gene of a histidine requiring strain to produce a histidine independent strain or concordantly, to detect mutation in a gene of a tryptophan requiring strain to produce a tryptophan independent strain.
S. typhimurium strain TA1535 and E. coli strain Wp2-uvrA^− were received from American Type Culture Collection, Manassas, Va. […] All working stocks of test strains will be confirmed for genotypic markers and acceptable reversion rates.
Master plates of the tester strains were prepared from frozen working stocks. To create working cultures for each bacterial strain used in the assay, a single colony was transferred from the master plate into Oxoid nutrient broth and incubated, with shaking, at 37±2° C. until an optical density (at 650 nm) of 0.6-1.6 was reached. This overnight culture was used for the mutagenicity test and for genotypic confirmation. Genotype tests were performed.
For both the dose range and mutagenicity test, a top agar consisting of 0.6% Difco agar in 0.5% NaCl was melted and a solution of 0.5 mM L-histidine/0.5 mM biotin or 0.5 mM L-tryptophan was added to the melted top agar at a ratio of 10 mL per 100 mL agar, as required. The supplemented agar was aliquotted, 2 mL per tube and held at 45-47° C. To prepare the top agar for treatment, 0.1 mL of the test article or control, 0.1 mL of the bacterial culture and 0.5 mL of phosphate buffered saline were added to the molten agar. […] Metabolic activation was provided by adding 0.5 mL of the S9 mix in place of the PBS. […] All plates were counted using an automatic image analysis system. Negative control and test article treated plates were also examined for the presence of a bacterial lawn.
The in vitro metabolic activation system used in this assay was comprised of Sprague Dawley rat liver enzymes and a cofactor pool. […] Immediately prior to use, the S9 was thawed and mixed with a cofactor pool to contain 5% S9, 5 mM glucose 6-phosphate, 4 mM β-nicotine-adenine dinucleotide phosphate, 8 mM MgCl2 and 33 mM KCl in a 200 mM phosphate buffer at pH 7.4. The S9 was purchased from Moltox (Boone, N.C.) and maintained frozen at less than −70° C.
For the definitive assay, three dose levels were chosen ([…], and 5.0 mg/mL). This was equivalent to 2.0, 1.0, and 0.5 mg/plate. All treatments, including negative and positive control, were plated in triplicate against test strains TA97a, TA98, TA100, TA102, TA1535, and WP2-uvrA^− in the presence and absence of metabolic activation.

The subject of series [6] is topoisomerase II. In words: Topoisomerase-II poison assay. The series is classed as biochemical. The note with it: 1 μM; control Topoisomerase-II poison. The text has this: FIG. 7 illustrates data from a toposiomerase-II poison assay, using VP-16 (Etoposide) as a control Topoisomerase-II poison.
The test system of series [7] is HCT-116 xenograft. The experiment in a line: HCT-116 colorectal cancer xenograft model. The note with it: HCT-116 model; FIG. 6. Format: in vivo. How it is done:
as §1
CX-3543 was tested against a number of cancer xenograft models to determine the in vivo efficacy. HCT-116 and PC-3 tumor-bearing nu/nu or MiaPaCa tumor-bearing SCID mice were administered reference and testing compounds on schedules indicated in figure legends. Tumor measurements were taken with calipers every other day or twice a week starting from the first day of dosing and body weights were measured at the same time points. Tumor volumes were calculated from the standard formula, W^2×L/2. c-MYC mRNA expression was measured with QPCR from all tumor samples following the final dose. 18S ribosomal RNA was used as a housekeeper and also quantified with QPCR.

For series [8], the system named is HeLa cells. The experiment in a line: MTS cell proliferation and/or cytotoxicity assay. The series is classed as cell-based, Human. The note with it: Homo sapiens, HeLa, 72 h, concentration at which 50% of antiproliferative cell response is seen; 3 days incubation; read-out: MTS Data Hella. Summed up: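 HeLa cells seeded at 4,500 cells/well, exposed to compounds from day 1 for 3 days at 37 °C, 5% CO2. Viability by MTS/PMS (20:1) with 4 h incubation, absorbance at 490 nm. Values are concentrations giving 50% antiproliferative response.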

Where [9] appears, read: read-out: S DATA, Table 1D, stop assay data.

Where “and” joins values, the source holds several entries; their conditions need not be identical. Equal entries are not always repeated. Where two headings read alike, the source gives them in different places.

With `CN1CCN(CCCNCCC(=O)N[C@@H]2CCN(c3c(F)cc4c(=O)c(C(=O)N5CCOCC5)cn5c4c3Oc3cc4c(cc3-5)oc3ccccc34)C2)CC1` [compound 1204], in series [1], the “antitumor activity: efficacy” value is “slow tumor weight gain” and the “toxicity (body weight)” value is “little body weight change”.
On to `CC(C)CN1CCN(c2c(F)cc3c(=O)c(C(=O)NCCN4CCCC4)cn4c3c2Oc2cc(Cl)ccc2-4)CC1` [compound 1826], for which the figures for the IC50 in series [2] (setting [9]) and in series [3] were 7.5 µM and 30 nM, respectively.
`CC[C@@]1(O)C(=O)OCc2c1cc1n(c2=O)Cc2cc3ccccc3nc2-1` [CPT]: in series [4], the “Annexin V / duplex DNA dye response” value is recorded as “mixed apoptotic/necrotic response”.
In the case of `[N-]=[N+]=[N-]` [Sodium Azide], in series [5] (TA100, without S9 activation), the FI is 4.9; the “TA100 colony count (Rep 1-3)” value was 615 and 631 and 702; the “TA100 colony count, Mean” value worked out at 649.3.
As for `CN1CCCC1CCNC(=O)c1cn2c3c(c(N[C@H]4CN5CCC4CC5)c(F)cc3c1=O)Oc1cc3ccccc3cc1-2` (stereo partly drawn) [compound 1496], the figures for the IC50 in series [2] (setting [9]) and in series [3] were 0.375 µM and 340 nM, respectively.
In the case of VP-16, the “topoisomerase-II mediated DNA cleavage” value in series [6] is “formation of double-strand breaks”.
Turning to `CC(C)(C)OC(=O)N1CCN(c2c(F)cc3c(=O)c(C(=O)NCCN4CCCC4)cn4c3c2Oc2cc(Cl)ccc2-4)CC1` [compound 1818], the IC50 in series [2] (setting [9]) was found to be 2.9 µM; in series [3] it was 40 nM.
Take `O=C(NCCN1CCCC1)c1cn2c3c(c(NCCCN4CCOCC4)c(F)cc3c1=O)Oc1cc3ccccc3cc1-2` [compound 494]: in series [2] (read-out: Stop Data c-Myc μM, concentration at which 50% of the DNA was arrested (arrested:full-length 1:1)), the IC50 was found to be 0.44 µM. In series [7], the “antitumor activity: efficacy” value is on record as “slow tumor weight gain” and the “toxicity (body weight)” value was “little body weight change”. Besides, the IC50 in series [8] is 190 nM.
Turning to `O=C(NCCN1CCCC1)c1cn2c3c(c(NCCCN4CCOCC4)c(F)cc3c1=O)Oc1cc(Cl)ccc1-2` [compound 1816], the IC50 was found to be 5 µM in series [2] (setting [9]) and 30 nM in series [3].
As for `Nc1ccc2cc3ccccc3cc2c1` [2-AA], in series [5] (TA100, with S9 activation), the FI is given as 6.8; the “TA100 colony count (Rep 1-3)” value is 655 and 857 and 949; the “TA100 colony count, Mean” value is 820.3.
As to `CCN1CCN(c2c(F)cc3c(=O)c(C(=O)NCCN4CCCC4)cn4c3c2Oc2cc(Cl)ccc2-4)CC1` [compound 1827], the IC50 in series [2] (setting [9]) was found to be 4.8 µM; in series [3], 10 nM.
The like results for `O=C(NCCN1CCCC1)c1cn2c3c(c(N4CCC(c5cnccn5)C4)c(F)cc3c1=O)Oc1cc(Cl)ccc1-2` (stereo not drawn) [compound 1811] were, in that order, 2.8 µM and 200 nM.
Consider `COc1ccc(CN2CCN(c3c(F)cc4c(=O)c(C(=O)NCCN5CCCC5)cn5c4c3Oc3cc(Cl)ccc3-5)CC2)cc1` [compound 1828], for which the IC50 in series [2] (setting [9]) worked out at 7.5 µM; in series [3], 100 nM.
`O=C(NCCN1CCCC1)c1cn2c3c(c(N4CCNCC4)c(F)cc3c1=O)Oc1cc(Cl)ccc1-2` [compound 1820]: the results for the IC50 in series [2] (setting [9]) and in series [3] were 8.2 µM and 30 nM, respectively.
